For experiment [1], the target named is 25P Btk enzyme (un-activated full-length Btk) (Homo sapiens (Human), UniProt Q06187). As to the kind of experiment: 25P Btk Enzyme Activity Assay (LANCE TR-FRET). It counts as biochemical. Conditions: un-activated Btk (25P), 25 μM ATP, 60 minute compound and enzyme incubation; read-out: Btk binding IC50 (nM) with 25 P. How it is done:
Preparation of Un-Activated Btk Enzyme (25P Btk)
Un-activated full-length Btk recombinant protein was purified from baculovirus-transfected Sf21 cells. […] This protein represents the un-activated state of the Btk enzyme.
25P Btk Enzyme Activity Assay
Btk enzymatic activity was determined with the LANCE (Lanthanide Chelate Excite) TR-FRET (lime-resolved fluorescence resonance energy transfer) assay. […] To each well of a black non-binding surface Corning 384-well microplate (Corning Catalog #3820), 5 nL of compound (2000 fold dilution in final assay volume of 10 μL) was dispensed, followed by the addition of 7.5 μL of 1× kinase buffer (50 mM Hepes 7.5, 10 mM MgCl2, 0.01% Brij-35, 1 mM EGTA, 0.05% BSA and 1 mM DTT) containing 26.67 pg/μL (266.7 pM) of 25P Btk enzyme (recombinant protein from baculovirus-transfected Sf9 cells: full-length Btk; MW=79378 Da). Following a 60 minute compound and enzyme incubation, each reaction was initiated by the addition of 2.5 μL 1× kinase buffer containing 8 μM biotinylated “A5” peptide (Biotin-EQEDEPEGDYFEWLE-NH2), and 100 μM ATP. The final reaction in each well of 10 consists of 200 pM 25P Btk, 2 μM biotin-A5-peptide, and 25 μM ATP. Phosphorylation reactions were allowed to proceed for 120 minutes. Reactions were immediately quenched by the addition of 20 uL of 1× quench buffer (15 mM EDTA, 25 mM Hepes 7.3, and 0.1% Triton X-100) containing detection reagents (0.626 nM of LANCE-Eu-W1024-anti-phosphoTyrosine antibody, PerkinElmer and 86.8 nM of Streptavidin-conjugated Dylight 650, Dyomics/ThermoFisher Scientific). After 60 minutes incubation with detection reagents, reaction plates were read on a PerkinElmer EnVision plate reader using standard TR-FRET protocol. Briefly, excitation of donor molecules (Eu-chelate:anti-phospho-antibody) with a laser light source at 337 nm produces energy that can be transferred to Dylight-650 acceptor molecules if this donor:acceptor pair is within close proximity. Fluorescence intensity at both 665 nm (acceptor) and 615 nm (donor) are measured and a TR-FRET ratio calculated for each well (acceptor intensity/donor intensity). IC50 values were determined by 4 parameter robust fit of TR-FRET ratio values vs. (Log10) compound concentrations.
(In general: TR-FRET usually uses a lanthanide donor and a delayed reading to cut background.)

The target in experiment [2] is 100P Btk enzyme (activated full-length Btk) (Homo sapiens (Human), UniProt Q06187). As to the kind of experiment: 100P Btk Enzyme Activity Assay (LANCE TR-FRET). Type of experiment: biochemical. Particulars: activated Btk (100P), 25 μM ATP, 60 minute compound and enzyme incubation; top concentration 1000 nM; read-out: Btk binding IC50 (nM) with 100 P. The procedure:
Activated full-length Btk recombinant enzyme was expressed and purified in the same manner as the […] enzyme, except an auto-phosphorylation step was added to the purification scheme. […] This protein represents the activated state of the Btk enzyme. […] Btk Enzyme Activity Assay Btk enzymatic activity was determined with the LANCE (Lanthanide Chelate Excite) TR-FRET (lime-resolved fluorescence resonance energy transfer) assay. […] MW=79378 Da). […] Phosphorylation reactions were allowed to proceed for 45 minutes. […] After 60 minutes incubation with detection reagents, reaction plates were read on a PerkinElmer EnVision plate reader using standard TR-FRET protocol. Briefly, excitation of donor molecules (Eu-chelate:anti-phospho-antibody) with a laser light source at 337 nm produces energy that can be transferred to Dylight-650 acceptor molecules if this donor:acceptor pair is within close proximity. Fluorescence intensity at both 665 nm (acceptor) and 615 nm (donor) are measured and a TR-FRET ratio calculated for each well (acceptor intensity/donor intensity). […] (Log10) compound concentrations.

One may read the IC50 as the point on the concentration scale where inhibition reaches its midpoint.

Sequence of 100P Btk enzyme (activated full-length Btk) (Q06187 whole entry): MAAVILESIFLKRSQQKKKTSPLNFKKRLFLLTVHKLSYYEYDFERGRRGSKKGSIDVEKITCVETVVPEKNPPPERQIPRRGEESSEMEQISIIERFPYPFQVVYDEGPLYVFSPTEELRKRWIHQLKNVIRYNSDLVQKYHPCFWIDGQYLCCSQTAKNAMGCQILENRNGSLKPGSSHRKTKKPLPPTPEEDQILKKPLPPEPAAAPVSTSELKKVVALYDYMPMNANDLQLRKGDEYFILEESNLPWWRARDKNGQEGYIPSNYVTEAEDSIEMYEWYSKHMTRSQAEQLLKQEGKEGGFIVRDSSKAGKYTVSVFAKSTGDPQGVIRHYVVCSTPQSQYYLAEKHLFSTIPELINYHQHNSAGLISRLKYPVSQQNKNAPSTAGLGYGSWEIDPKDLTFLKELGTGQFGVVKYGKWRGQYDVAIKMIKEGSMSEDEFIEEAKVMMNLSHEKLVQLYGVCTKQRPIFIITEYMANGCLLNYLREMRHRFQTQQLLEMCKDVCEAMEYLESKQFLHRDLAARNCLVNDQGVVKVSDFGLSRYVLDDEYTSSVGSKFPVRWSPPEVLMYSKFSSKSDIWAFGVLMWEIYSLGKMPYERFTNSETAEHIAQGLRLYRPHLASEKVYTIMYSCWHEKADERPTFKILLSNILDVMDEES
Sequence of 25P Btk enzyme (un-activated full-length Btk) (Q06187 whole entry): as above

Turning to `CC(C)(C)c1cc(F)c2c(=O)n(-c3cccc(-c4cc(-c5cnn(C(C)(C)C(=O)O)c5)c5[nH]nc(N)c5c4)c3CO)ncc2c1` [Example 24, 2-(4-(3-amino-5-(3-(6-(tert-butyl)-8-fluoro-1-oxophthalazin-2(1H)-yl)-2-(hydroxymethyl)phenyl)-1H-indazol-7-yl)-1H-pyrazol-1-yl)-2-methylpropanoic acid], the IC50 worked out at 0.28 nM in experiment [1] and 31.5 nM in experiment [2].

For `CC(C)n1ccc(-c2cc(-c3cccc(-n4ncc5cc(C(C)(C)C)cc(F)c5c4=O)c3CO)cc3c(N)n[nH]c23)n1` [Example 17, 2-[3-{3-amino-7-[1(1-methylethyl)-1H-pyrazol-3-yl]-1H-indazol-5-yl}-2-(hydroxymethyl)phenyl]-6-tert-butyl-8-fluorophthalazin-1(2H)-one], the half-inhibitory concentration (IC50) came to 0.16 nM in experiment [1] and 13 nM in experiment [2].

Turning to `CC(C)(C)c1cc(F)c2c(=O)n(-c3cccc(-c4cc(C(N)=O)c5[nH]nc(N)c5c4)c3CO)ncc2c1` [Example 3, 3-amino-5-[3-(6-tert-butyl-8-fluoro-1-oxophthalazin-2(1H)-yl)-2-(hydroxymethyl)phenyl]-1H-indazole-7-carboxamide], the IC50 was determined as 0.16 nM in experiment [1] and 16 nM in experiment [2].

Turning to `CC(C)n1cc(-c2cc(-c3cccc(-n4ncc5cc(C(C)(C)C)cc(F)c5c4=O)c3CO)cc3c(N)n[nH]c23)cn1` [Example 6, 2-[3-{3-amino-7-[1-(1-methylethyl)-1H-pyrazol-4-yl]-1H-indazol-5-yl}-2-(hydroxymethyl)phenyl]-6-tert-butyl-8-fluorophthalazin-1(2H)-one], the IC50 in experiment [1] worked out at 0.15 nM; in experiment [2], 3.8 nM.

For the molecule `CC(C)(C)c1cc(F)c2c(=O)n(-c3cccc(-c4cc(C(=O)O)c5[nH]nc(N)c5c4)c3CO)ncc2c1` [Example 1, 3-amino-5-[3-(6-tert-butyl-8-fluoro-1-oxophthalazin-2(1H)-yl)-2-(hydroxymethyl)phenyl]-1H-indazole-7-carboxylic acid], the concentration for half-maximal inhibition (IC50) in experiment [1] is 0.14 nM; in experiment [2] it was 112 nM.

On to `CC(C)(C)c1cc(F)c2c(=O)n(-c3cccc(-c4cc(-c5cccnc5)c5[nH]nc(N)c5c4)c3CO)ncc2c1` [Example 10, 2-[3-(3-amino-7-pyridin-3-yl-1H-indazol-5-yl)-2-(hydroxymethyl)phenyl]-6-tert-butyl-8-fluorophthalazin-1(2H)-one], for which the IC50 in experiment [1] is 0.8 nM; in experiment [2], 299 nM.

As for `Cn1cc(-c2cc(-c3cccc(NC(=O)c4cc5c(s4)CCCC5)c3CO)cc3c(N)n[nH]c23)cn1` [Example 18, N-{3-[3-amino-7-(1-methyl-1H-pyrazol-4-yl)-1H-indazol-5-yl]-2-(hydroxymethyl)phenyl}-4,5,6,7-tetrahydro-1-benzothiophene-2-carboxamide], the IC50 in experiment [1] stood at 0.13 nM; in experiment [2] it was 11.6 nM.

With `Cc1c(NC(=O)c2ccc(C(C)(C)C)cc2F)cccc1-c1cc(C(N)=O)c2[nH]nc(N)c2c1` [Example 7, 3-amino-5-(3-{[(4-tert-butyl-2-fluorophenyl)carbonyl]amino}-2-methylphenyl)-1H-indazole-7-carboxamide], the 50% inhibitory concentration (IC50) in experiment [1] was found to be 64.5 nM.

Consider `CC(C)(C)c1cc(F)c2c(=O)n(-c3cccc(-c4cc5c(N)n[nH]c5cn4)c3CO)ncc2c1` [Example 21, 2-[3-(3-amino-1H-pyrazolo[3,4-c]pyridin-5-yl)-2-(hydroxymethyl)phenyl]-6-tert-butyl-8-fluorophthalazin-1(2H)-one], for which the half-inhibitory concentration (IC50) is 9.5 nM in experiment [1] and 801 nM in experiment [2].

Take `CC(C)(C)c1cc(F)c2c(c1)CCN(c1cccc(-c3cc(C(N)=O)c4[nH]nc(N)c4c3)c1CO)C2=O` [Example 16, 3-amino-5-[3-(6-tert-butyl-8-fluoro-1-oxo-3,4-dihydroisoquinolin-2(1H)-yl)-2-(hydroxymethyl)phenyl]-1H-indazole-7-carboxamide]: the IC50 in experiment [1] worked out at 0.49 nM; in experiment [2], 145 nM.

With `Cc1c(NC(=O)c2ccc(C(C)(C)C(F)(F)F)cc2F)cccc1-c1cc(C(N)=O)c2[nH]nc(N)c2c1` [Example 8, 3-amino-5-[3-({[2-fluoro-4-(2,2,2-trifluoro-1,1-dimethylethyl)phenyl]carbonyl}amino)-2-methylphenyl]-1H-indazole-7-carboxamide], the IC50 in experiment [1] was determined as 268 nM.

In the case of `Cc1nn(C)cc1-c1cc(-c2cccc(-n3ncc4cc(C(C)(C)C)cc(F)c4c3=O)c2CO)cc2c(N)n[nH]c12` [Example 27, 2-(3-(3-amino-7-(1,3-dimethyl-1H-pyrazol-4-yl)-1H-indazol-5-yl)-2-(hydroxymethyl)phenyl)-6-(tert-butyl)-8-fluorophthalazin-1(2H)-one], the IC50 is 0.43 nM in experiment [1] and 69.5 nM in experiment [2].

Regarding `COCCn1cc(-c2cc(-c3cccc(-n4ncc5cc(C(C)(C)C)cc(F)c5c4=O)c3CO)cc3c(N)n[nH]c23)cn1` [Example 26, 2-(3-(3-amino-7-(1-(2-methoxyethyl)-1H-pyrazol-4-yl)-1H-indazol-5-yl)-2-(hydroxymethyl)phenyl)-6-(tert-butyl)-8-fluorophthalazin-1(2H)-one], the 50% inhibitory concentration (IC50) in experiment [1] was 0.096 nM; in experiment [2] it was 5.3 nM.

Consider `Cc1c(NC(=O)c2ccc(C(C)(C)C)cc2)cccc1-c1cc(-c2cnn(C)c2)c2[nH]nc(N)c2c1` [Example 13, N-{3-[3-amino-7-(1-methyl-1H-pyrazol-4-yl)-1H-indazol-5-yl]-2-methylphenyl}-4-tert-butylbenzamide], for which the half-maximal inhibitory concentration (IC50) in experiment [1] turned out to be 16.7 nM.

On to `CC(C)(C)c1cc(F)c2c(=O)n(-c3cccc(-c4cc(C(=O)N5CCOCC5)c5[nH]nc(N)c5c4)c3CO)ncc2c1` [Example 14, 2-{3-[3-amino-7-(morpholin-4-ylcarbonyl)-1H-indazol-5-yl]-2-(hydroxymethyl)phenyl}-6-tert-butyl-8-fluorophthalazin-1(2H)-one], for which the concentration for half-maximal inhibition (IC50) in experiment [1] was 173 nM.

For the molecule `Cn1nc(N)c2cc(-c3cccc(-n4ncc5cc(C(C)(C)C)cc(F)c5c4=O)c3CO)cc(C(N)=O)c21` [Example 5, 3-amino-5-[3-(6-tert-butyl-8-fluoro-1-oxophthalazin-2 (1H)-yl)-2-(hydroxymethyl)phenyl]-1-methyl-1H-indazole-7-carboxamide], the half-inhibitory concentration (IC50) in experiment [1] amounted to 47.3 nM.

As to `CC(C)(C)c1cc(F)c2c(=O)n(-c3cccc(-c4ccc5[nH]nc(N)c5n4)c3CO)ncc2c1` [Example 20, 2-[3-(3-amino-1H-pyrazolo[4,3-b]pyridin-5-yl)-2-(hydroxymethyl)phenyl]-6-tert-butyl-8-fluorophthalazin-1(2H)-one], in experiment [1], the concentration for half-maximal inhibition (IC50) turned out to be 7.7 nM.

For the molecule `CC(C)(C)c1cc(F)c2c(=O)n(-c3cccc(-c4cc(C(F)(F)F)c5[nH]nc(N)c5c4)c3CO)ncc2c1` [Example 4, 2-{3-[3-amino-7-(trifluoromethyl)-1H-indazol-5-yl]-2-(hydroxymethyl)phenyl}-6-tert-butyl-8-fluorophthalazin-1(2H)-one], the IC50 in experiment [1] turned out to be 38.6 nM.

Regarding `CC(C)(C)c1cc(F)c2c(=O)n(-c3cccc(-c4ccc5c(c4)c(N)nn5Cc4ccncc4)c3CO)ncc2c1` [Example 12, 2-{3-[3-amino-1-(pyridin-4-ylmethyl)-1H-indazol-5-yl]-2-(hydroxymethyl)phenyl}-6-tert-butyl-8-fluorophthalazin-1(2H)-one], the IC50 in experiment [1] was 29.6 nM.
